According to patent US20250257064A1, “TRIFLUOROMETHYL-SUBSTITUTED SULFONAMIDE AS BCL-2-SELECTIVE INHIBITOR” (Chia Tai Tianqing Pharmaceutical Group Co., Ltd., priority 2018, published 2025):
pIC50: −log10 of the molar value.

How the values were obtained:
[1] = target: T1, BCL-2/BAK (Homo sapiens, UniProt P10415); assay: Screening on inhibitory activity for BCL-2/BAK binding (Cisbio HTRF kit)
T1 construct: purchased Cisbio
Summary of the method: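 HTRF competition assay: Tag1-BCL-2 and Tag2-BAK working dilutions were 5 nM and 120 nM. Compound (200–0.0488 nM final, 4-fold, 7 points, duplicates) was incubated with the proteins for 15 min at 25 °C, then with Eu-cryptate/XL665 antibodies for ≥2 h at 25 °C. IC50 was derived from a four-parameter fit.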

[2] = target: T2, BCL-XL/BAK (Homo sapiens, UniProt Q07817); assay: Screening on inhibitory activity for BCL-XL/BAK binding (Cisbio HTRF kit)
T2 construct: purchased Cisbio
T2 sequence (Q07817 whole entry, species assumed): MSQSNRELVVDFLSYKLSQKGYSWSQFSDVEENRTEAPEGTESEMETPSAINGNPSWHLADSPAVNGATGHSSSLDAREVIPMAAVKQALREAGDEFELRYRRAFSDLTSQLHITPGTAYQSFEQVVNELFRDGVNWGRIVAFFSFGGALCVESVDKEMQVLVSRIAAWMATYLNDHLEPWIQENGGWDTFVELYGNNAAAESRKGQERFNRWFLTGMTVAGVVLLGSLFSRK
Summary of the method: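 Tag1-BCL-XL and Tag2-BAK (2 nM and 80 nM before mixing) were combined with compounds at final 2000–0.488 nM (4-fold, 7 points, duplicates) for 15 min at 25° C. Eu3+ anti-Tag1 and XL665 anti-Tag2 were then added for ≥2 h at 25° C. HTRF (620/665 nm) gave IC50 by four-parameter fit.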

[3] = test system: human platelet Caspase-3 activity; assay: Human platelet toxicity experiment (Caspase-3 activity assay); format: cell-based; details: 90 min, data normalized, reference ABT-199
Procedure: Experimental Example 6: Human Platelet Toxicity Experiment (Caspase-3 Activity Assay)
10 mL of human whole blood was collected using a heparin sodium anticoagulation tube, mixed well by turning upside down, and centrifuged at 90 g for 10 min. The supernatant was collected and centrifuged at 1950 g for 10 min. The supernatant was discarded, and the residue was resuspended in 4 mL of PBS, and centrifuged at 1190 g for 5 min, and the procedure was repeated once. The supernatant was discarded, and the platelets were resuspended in PBS and adjusted to the density of 2-3×10^8 cells/mL. Cells were seeded into a 96-well plate at a density of 2-3×10^7 cells/mL and at 100 μL/well. 50 μL of control buffer was added to each negative control well, and 50 μL of compound at a corresponding concentration was added to each compound well, so that the final concentration of the compound was 2.5 μM, 2 μM, 1 μM or 0.5 μM, followed by incubation in an incubator at 37° C. for 90 min. The liquids in the 96-well plate were transferred to 1.5 mL centrifuge tubes, respectively. The tubes were centrifuged at 4° C. and 6000 g for 5 min, and placed on ice for later use after the supernatant was discarded. 5× lysis buffer was diluted into 1× lysis buffer with water in the kit, and protease inhibitor cocktail was added at a 1:200 ratio to prepare a lysis mixture for later use. 40 μL of lysis mixture was added to each centrifuge tube, and the platelets at the bottom were resuspended using a pipette. The suspension was lysed on ice for 15-20 min and centrifuged at 4° C. and 14,000 g for 10 min. The sample was sub-packaged for later use. 10× assay buffer was diluted into 1× assay buffer with water in the kit, and substrate Ac-DEVD-AMC was added at a 1:600 ratio to prepare a reaction mixture. 5 μL of assay buffer and 40 μL of reaction mixture were added to each blank control well. 5 μL of control platelet lysate and 40 μL of reaction mixture were added to each negative control well. 5 μL of platelet lysate and 40 μL of reaction mixture were added to each compound well. In this procedure, 40 μL of reaction mixture was added at last. The resulting mixture was mixed gently, and the plate was read by a PE Envision multi-functional microplate reader (excitation: 360 nm, emission: 460 nm) once every 10 min for 6 times. Caspase-3 activity was determined based on the intensity of the released AMC fluorescence, that is the slope of the fitted line to which each well corresponds represents Caspase activity (all data were normalized and the reference was ABT-199).

[4] = test system: RS4;11 cells; assay: Inhibitory effect on proliferation of RS4;11 cells (CCK-8); format: cell-based, human
Summary of the method: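 RS4;11 cells were seeded at 1×10^5 cells/mL in RPMI with 5% FBS and incubated 24 h at 37° C, 5% CO2 before compound addition in duplicate. Inhibition was calculated against untreated and blank controls. IC50 came from a four-parameter fit of log concentration versus inhibition.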

[5] = In vitro stability in rat liver microsomes; format: in vitro ADME; details: 1 μM
Procedure: (§1) Experimental Example 3: In Vitro Stability in Liver Microsome
(§2) 300 μL of the final incubation system contains 30 μL of liver microsomes (protein concentration: 5 mg/mL), 30 μL of NADPH+MgCl2, 3 μL of the test compound (in acetonitrile), and 237 μL of PBS buffer (pH 7.4), wherein the proportion of the organic solvent (acetonitrile) is 1% (volume ratio). Two duplicate samples were prepared for each specie (mouse, rat and human), and each sample was 0.3 mL. Each tube which was added with 270 μL of a mixed solution of substrate and enzyme, and NADPH, after being pre-incubated at 37° C. for 5 min, was added with 30 μL of NADPH+MgCl2 and mixed. Then 50 μL of the mixture was taken at 0 min, 15 min, 30 min and 60 min, and added with 300 μL of glacial acetonitrile containing an internal standard to terminate the reaction.
(§3) 50 μL of the incubated sample was added with 300 μL of glacial acetonitrile containing an internal standard (20 ng/mL diazepam) for precipitation, vortexed for 5 min, and centrifuged (13,000 rpm, 20° C.) for 10 min. 70 μL of supernatant was taken and diluted with 70 μL of ultrapure water. After being mixed well, 1 μL of the resulting sample was injected for analysis.

[6] = In vitro stability in human liver microsomes; format: in vitro ADME; details: 1 μM
Procedure: as §1, §2, §3

[7] = In vitro stability in mouse liver microsomes; format: in vitro ADME; details: 1 μM
Procedure: as §1, §2, §3

T1 sequence (P10415 whole entry, species assumed): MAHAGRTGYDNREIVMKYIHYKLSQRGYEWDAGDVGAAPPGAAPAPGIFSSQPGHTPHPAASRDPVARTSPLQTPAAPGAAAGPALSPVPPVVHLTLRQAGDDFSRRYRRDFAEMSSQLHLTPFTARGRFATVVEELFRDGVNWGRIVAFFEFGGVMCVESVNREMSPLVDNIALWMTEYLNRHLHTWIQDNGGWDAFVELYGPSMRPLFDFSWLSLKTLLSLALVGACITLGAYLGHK

Row | SMILES | pIC50 [1] | pIC50 [2] | pIC50 ([4]; Homo sapiens, RS4-11, 72 h) | Rat Residual content after 60 min (%) [5] | Human Residual content after 60 min (%) [6] | Mouse Residual content after 60 min (%) [7] | human platelet Caspase-3 activity, Slope ([3]; compound concentration 0.5 μM) | human platelet Caspase-3 activity, Slope ([3]; compound concentration 2 μM) | human platelet Caspase-3 activity, Slope ([3]; compound concentration 1 μM) | pIC50 ([4]; 72 h)
1 | CCN1CCC(CCNc2ccc(S(=O)(=O)NC(=O)c3ccc(N4CCN(CC5=C(c6ccc(C(F)(F)F)cc6Cl)CC(C)(C)CC5)CC4)cc3Oc3cnc4[nH]ccc4c3)cc2[N+](=O)[O-])CC1 [Compound 19-1, 4-(4-{[2-(2-chloro-4-trifluoromethylphenyl)-4,4-dimethylcyclohex-1-enyl]methyl}-piperazin-1-yl)-N-({3-nitro-4-[(2-(1-ethylpiperidin-4-yl)ethyl)amino]phenyl}sulfonyl)-2-(1H-pyrrolo[2,3-b]pyridin-5-yloxy)-benzamide] | 8.60 |  | 8.46 |  |  |  |  |  | 0.12 | 
2 | CC1(C)CCC(CN2CCN(c3ccc(C(=O)NS(=O)(=O)c4ccc(NC[C@@H]5COCCO5)c([N+](=O)[O-])c4)c(Oc4cnc5[nH]ccc5c4)c3)CC2)=C(c2ccc(C(F)(F)F)cc2Cl)C1 [Compound 7-1] | 8.46 | 6.54 |  |  |  |  |  |  | 0.48 | 8.34
3 | CC1(C)CCC(CN2CCN(c3ccc(C(=O)NS(=O)(=O)c4ccc(NCCC5CCN(CCF)CC5)c([N+](=O)[O-])c4)c(Oc4cnc5[nH]ccc5c4)c3)CC2)=C(c2ccc(C(F)(F)F)cc2Cl)C1 [Compound 20-1, 4-(4-{[2-(2-chloro-4-trifluoromethylphenyl)-4,4-dimethylcyclohex-1-enyl]methyl}-piperazin-1-yl)-N-({3-nitro-4-[(2-(1-(2-fluoroethyl)piperidin-4-yl)ethyl)amino]phenyl}sulfonyl)-2-(1H-pyrrolo[2,3-b]pyridin-5-yloxy)-benzamide] | 8.68 |  | 8.41 |  |  |  |  |  | 0.37 | 
4 | CC(=O)N1CCOC(CNc2ccc(S(=O)(=O)NC(=O)c3ccc(N4CCN(CC5=C(c6ccc(C(F)(F)F)cc6Cl)CC(C)(C)CC5)CC4)cc3Oc3cnc4[nH]ccc4c3)cc2[N+](=O)[O-])C1 (stereo not drawn) [Compound 9-1, 4-(4-{[2-(2-chloro-4-trifluoromethylphenyl)-4,4-dimethylcyclohex-1-enyl]methyl}-piperazin-1-yl)-N-({3-nitro-4-[((4-acetylmorpholin-2-yl)methyl)amino]phenyl}sulfonyl)-2-(1H-pyrrolo[2,3-b]pyridin-5-yloxy)-benzamide] | 8.74 |  | 8.57 | 101.7% | 69.8% | 55.7% |  |  |  | 
5 | CN1CCC(CCNc2ccc(S(=O)(=O)NC(=O)c3ccc(N4CCN(CC5=C(c6ccc(C(F)(F)F)cc6Cl)CC(C)(C)CC5)CC4)cc3Oc3cnc4[nH]ccc4c3)cc2[N+](=O)[O-])CC1 [Compound 18-1, 4-(4-{[2-(2-chloro-4-trifluoromethylphenyl)-4,4-dimethylcyclohex-1-enyl]methyl}-piperazin-1-yl)-N-({3-nitro-4-[(2-(1-methylpiperidin-4-yl)ethyl)amino]phenyl}sulfonyl)-2-(1H-pyrrolo[2,3-b]pyridin-5-yloxy)-benzamide] | 8.57 |  | 8.37 |  |  |  |  |  | 0.31 | 
6 | CN1CCC(CCCNc2ccc(S(=O)(=O)NC(=O)c3ccc(N4CCN(CC5=C(c6ccc(C(F)(F)F)cc6Cl)CC(C)(C)CC5)CC4)cc3Oc3cnc4[nH]ccc4c3)cc2[N+](=O)[O-])CC1 [Compound 17-1, 4-(4-{[2-(2-chloro-4-trifluoromethylphenyl)-4,4-dimethylcyclohex-1-enyl]methyl}-piperazin-1-yl)-N-({3-nitro-4-[(3-(1-methylpiperidin-4-yl)propyl)amino]phenyl}sulfonyl)-2-(1H-pyrrolo[2,3-b]pyridin-5-yloxy)-benzamide] | 8.70 |  | 8.54 |  |  |  |  |  | 0.48 | 
7 | CC1(C)CCC(CN2CCN(c3ccc(C(=O)NS(=O)(=O)c4ccc(NC[C@H]5CCOC5)c([N+](=O)[O-])c4)c(Oc4cnc5[nH]ccc5c4)c3)CC2)=C(c2ccc(C(F)(F)F)cc2Cl)C1 [Compound 35-1, (R)-4-(4-{[2-(2-chloro-4-trifluoromethylphenyl)-4,4-dimethylcyclohex-1-enyl]methyl}-piperazin-1-yl)-N-({3-nitro-4-[((tetrahydrofuran-3-yl)methyl)amino]phenyl}sulfonyl)-2-(1H-pyrrolo[2,3-b]pyridin-5-yloxy)-benzamide] | 8.79 | 6.63 | 8.02 |  |  |  |  |  |  | 

Now from value to molecule, other results behind:

Row | pIC50 [1] | pIC50 [2] | pIC50 ([4]; Homo sapiens, RS4-11, 72 h) | Rat Residual content after 60 min (%) [5] | Human Residual content after 60 min (%) [6] | Mouse Residual content after 60 min (%) [7] | SMILES | human platelet Caspase-3 activity, Slope ([3]; compound concentration 0.5 μM) | human platelet Caspase-3 activity, Slope ([3]; compound concentration 2 μM) | human platelet Caspase-3 activity, Slope ([3]; compound concentration 1 μM) | pIC50 ([4]; 72 h)
8 | 8.74 | 6.92 | 8.72 |  |  |  | CC1(C)CCC(CN2CCN(c3ccc(C(=O)NS(=O)(=O)c4ccc(NC[C@@H]5CCCOC5)c([N+](=O)[O-])c4)c(Oc4cnc5[nH]ccc5c4)c3)CC2)=C(c2ccc(C(F)(F)F)cc2Cl)C1 [Compound 43-1, (S)-4-(4-{[2-(2-chloro-4-trifluoromethylphenyl)-4,4-dimethylcyclohex-1-enyl]methyl}-piperazin-1-yl)-N-({3-nitro-4-[((tetrahydropyran-3-yl)methyl)amino]phenyl}sulfonyl)-2-(1H-pyrrolo[2,3-b]pyridin-5-yloxy)-benzamide] | 0.19 | 0.09 |  | 
9 | 8.47 | 6.57 | 8.64 |  |  |  | CCS(=O)(=O)N1CCOC(CNc2ccc(S(=O)(=O)NC(=O)c3ccc(N4CCN(CC5=C(c6ccc(C(F)(F)F)cc6Cl)CC(C)(C)CC5)CC4)cc3Oc3cnc4[nH]ccc4c3)cc2[N+](=O)[O-])C1 (stereo not drawn) [Compound 57-1, 4-(4-{[2-(2-chloro-4-trifluoromethylphenyl)-4,4-dimethylcyclohex-1-enyl]methyl}-piperazin-1-yl)-N-({3-nitro-4-[((4-(ethylsulfonyl)morpholin-2-yl)methyl)amino]phenyl}sulfonyl)-2-(1H-pyrrolo[2,3-b]pyridin-5-yloxy)-benzamide] | 0.08 | 0.04 |  | 
10 | 8.82 | 6.87 | 8.74 |  |  |  | CC(=O)N1CCO[C@H](CNc2ccc(S(=O)(=O)NC(=O)c3ccc(N4CCN(CC5=C(c6ccc(C(F)(F)F)cc6Cl)CC(C)(C)CC5)CC4)cc3Oc3cnc4[nH]ccc4c3)cc2[N+](=O)[O-])C1 [Compound 65-1, (R)-4-(4-{[2-(2-chloro-4-trifluoromethylphenyl)-4,4-dimethylcyclohex-1-enyl]methyl}-piperazin-1-yl)-N-({3-nitro-4-[((4-acetylmorpholin-2-yl)methyl)amino]phenyl}sulfonyl)-2-(1H-pyrrolo[2,3-b]pyridin-5-yloxy)-benzamide] | 0.44 | 0.43 |  | 
